Results: ChEMBL document CHEMBL3600365, “Structural and computational study on inhibitory compounds for endonuclease activity of influenza virus polymerase” (Bioorg Med Chem, 2015)
Calls of active or inactive are those of the source. The rule behind the calls is not given here.

Key:
Influenza A virus [1] = assay: Antiviral activity against Influenza A virus (A/PR8/34(H1N1)) infected in MDCK cells assessed as inhibition of viral replication after 24 hrs; assay type: functional, organism-based; conditions: A/Puerto Rico/8/1934(H1N1)
[2] = target: Polymerase acidic protein (Influenza A virus (A/Puerto Rico/8/1934(H1N1)), UniProt P03433); assay: Inhibition of Influenza A/Puerto Rico/8/34 (H1N1) PA N-terminal domain endonuclease activity expressed in Escherichia coli BL21 (RIL) cells using (6-FAM)TGGCAATATCAGCTCCACA(MGBNFQ) as substrate by fluorescence assay
Influenza A virus [3] = assay: Antiviral activity against Influenza A virus (A/Puerto Rico/8/1934(H1N1)) infected in MDCK cells after 24 hrs by immunofocus assay; assay type: functional, organism-based
[4] = Cytotoxicity against MDCK cells after 24 hrs by CellTiter 96 AQueous one solution cell proliferation assay; assay type: cell-based, Canis lupus familiaris; conditions: dog
[5] = target: Polymerase acidic protein (Influenza A virus (A/Puerto Rico/8/1934(H1N1)), UniProt P03433); assay: Inhibition of Influenza A/Perto Rico/8/34 (PR8) (H1N1) PA N-terminal domain (1 to 197) endonuclease activity expressed in Escherichia coli Rosetta (DE3) using (6-FAM)-AAT CGC AGG CAG CAC TC-(BHQ-1) as substrate measured every 50 secs for 30 mins by FRET assay
[6] = test system: unidentified influenza virus; assay: Antiviral activity against Influenza virus infected in MDCK cells assessed as viral RNA content incubated with cells for 30 mins prior to addition of 30 mins preincubated virus-compound mixture for 1 hr followed by 3 times compound washout and again cultured in compound containing virus growth medium for 24 hrs by RT-PCR analysis; assay type: functional, organism-based
[7] = target: Polymerase acidic protein (Influenza A virus (A/Puerto Rico/8/1934(H1N1))) (UniProt P03433); assay: Inhibition of Influenza A/Perto Rico/8/34 (PR8) (H1N1) PAN (1 to 197) endonuclease activity expressed in Escherichia coli Rosetta (DE3) using M13mp18 as substrate at 100 uM after 60 mins by agarose gel elctrophoresis

SMILES	IC50 (Influenza A virus [1])	IC50 [2]	EC50 (Influenza A virus [3])	CC50 at 24 h [4]	IC50 [5]	EC50 [6]	inhibition [7]
O=C(O)/C(O)=C/C(=O)C1(Cc2ccc(Cl)cc2)CCN(Cc2ccccc2)CC1	0.35 µM						
O=c1[nH]c(-c2ccc(F)cc2)c(-c2ccc(-c3nnn[nH]3)cc2)cc1O		0.011 µM	11 µM				
Oc1ccc(/C=N/Nc2ccc(Cl)cc2)c(O)c1O				> 200 µM	8.3 µM	14.4 µM	Active
O=Cc1cc(Cc2ccccc2Cl)cc([N+](=O)[O-])c1O				74.1 µM	63 µM	11.5 µM	Active
O=C(COc1ccc(F)cc1)c1ccc(O)c(O)c1O				> 200 µM	9.7 µM	11.8 µM	Active
